Measurements from US10894817B2, “Fatty acid modified urocortin-2 analogs for the treatment of diabetes and chronic kidney disease” (priority 2016, dated 2021).
pEC50: −log10 of the molar value. Starred links: 1 amine or outer side, 2 acyl side, 3 side chain; linkers in the order of their positions; H or OH if unused. Residues, ends and D or L forms follow the SMILES beside them. Groups on a side chain read outwards from the residue. *: point of attachment. C18 diacid = O=C(O)CCCCCCCCCCCCCCCCC(=O)*; γGlu = O=C(O)[C@H](CCC(=O)[*:2])N[*:1]; Palmitoyl = CCCCCCCCCCCCCCCC(=O)*; AEEA = NCCOCCOCC(=O)O

Target: T1, human CRHR2b (Homo sapiens, UniProt Q13324)
T1 construct: expressed in transfected cells; host or cells: Chinese Hamster Ovary (CHO) cells, transient transfection
T1 sequence (Q13324 1-438 isoform Q13324-2): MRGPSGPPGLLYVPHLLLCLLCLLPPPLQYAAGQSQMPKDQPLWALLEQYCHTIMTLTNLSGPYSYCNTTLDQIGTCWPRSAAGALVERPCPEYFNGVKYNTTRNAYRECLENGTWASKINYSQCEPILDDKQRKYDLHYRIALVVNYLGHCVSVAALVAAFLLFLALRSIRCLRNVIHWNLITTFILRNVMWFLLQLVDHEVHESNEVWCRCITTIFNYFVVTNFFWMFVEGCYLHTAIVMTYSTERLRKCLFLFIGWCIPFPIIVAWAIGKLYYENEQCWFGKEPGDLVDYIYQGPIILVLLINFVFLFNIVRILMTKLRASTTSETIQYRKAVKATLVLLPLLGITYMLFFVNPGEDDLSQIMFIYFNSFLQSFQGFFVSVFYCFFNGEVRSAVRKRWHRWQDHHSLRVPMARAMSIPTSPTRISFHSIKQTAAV
Assay: human CRHR2b cell-based cAMP assay
Details: cAMP assay; Table 26, compounds of Example 9; read-out: hCRHR2b Average EC50
Description: CRHR agonistic activity is measured in a cell-based cAMP assay. Serial dilutions of the test peptides are made in assay buffer containing Hank's Balanced Salt Solution (HBSS, without phenol red) supplemented with 20 mM HEPES and 0.05% lactalbumin enzymatic hydrolysate (LAH) (“assay buffer”). […] A one to three dilution of the test peptides is used in both assays. Receptor over-expressing Chinese Hamster Ovary (CHO) cell line is used for the human CRHR2b assay. […] AF011406.1). Forty-eight hours after the transfection, the cells are centrifuged to remove the culture media and resuspended in fetal bovine serum containing 5% DMSO. They are cryofrozen and stored in vials in liquid nitrogen (20×10^6 cells/ml/vial). On the day of the assay, cells are thawed and resuspended in cold 30 ml culture media supplemented with 20 mM HEPES. The cells are then centrifuged to remove the media and washed once with HBSS supplemented with 20 mM HEPES. Finally, following the last centrifugation, the cells are resuspended in assay buffer. Thirty-thousand cells are used in the human CRHR2b assay for each treatment. The cells are dispensed into Costar 96-well black polystyrene half area EIA/RIA plates (Corning Incorporated, Corning, N.Y.) followed by the addition of the diluted peptides, each at a volume of 20 μL. The agonist induced cAMP levels are detected using a HTRF cAMP Dynamic 2 kit (CisBio, Bedford, Mass.). After incubation at 37° C. for 30 min, the assay is stopped by cell lysis via the addition of 20 μL of d2-labeled cAMP and followed by 20 μL of cryptate-labeled anti-cAMP antibody, as described by the manufacturer. Cellular cAMP (as a result of agonist stimulation) competes with the d2-labeled cAMP for binding to the antibody. HTRF detection is performed on an Envision plate reader (Perkin Elmer Life and Analytical Sciences, Waltham, Mass.) by measuring ratiometric emission at 620 and 665 nm after excitation at 320 nm. The data are converted to picomoles of cAMP using a standard curve obtained from the same assay performed with varying concentrations of unlabeled cAMP. […] The data are analyzed using a Curve Fitting Tool to calculate ED50. Numeric values shown below in Table 1 represent the mean of multiple runs (number of runs shown in parentheses) following the mean value±SEM.

pEC50	SMILES
7.93	CC[C@H](C)[C@H](N)C(=O)N[C@H](C(=O)N[C@@H](CC(C)C)C(=O)N[C@@H](CO)C(=O)N[C@@H](CC(C)C)C(=O)N[C@@H](CC(=O)O)C(=O)N[C@H](C(=O)N1CCC[C@H]1C(=O)N[C@H](C(=O)NCC(=O)N[C@@H](CC(C)C)C(=O)N[C@@H](CC(C)C)C(=O)N[C@@H](CCC(N)=O)C(=O)N[C@H](C(=O)N[C@@H](CC(C)C)C(=O)N[C@@H](CC(C)C)C(=O)N[C@@H](CCC(=O)O)C(=O)N[C@@H](CCC(N)=O)C(=O)N[C@@H](CCC(=O)O)C(=O)N[C@@H](CCCCN)C(=O)N[C@@H](CCC(N)=O)C(=O)N[C@@H](CCC(=O)O)C(=O)N[C@@H](CCCCN)C(=O)N[C@@H](CCC(=O)O)C(=O)N[C@@H](CCCCNC(=O)COCCOCCNC(=O)COCCOCCNC(=O)CC[C@H](NC(=O)CC[C@H](NC(=O)CCCCCCCCCCCCCCCCC(=O)O)C(=O)O)C(=O)O)C(=O)N[C@@H](CCC(N)=O)C(=O)N[C@@H](CCC(N)=O)C(=O)N[C@@H](C)C(=O)N[C@H](C(=O)N[C@H](C(=O)N[C@@H](CC(N)=O)C(=O)N[C@@H](C)C(=O)N[C@@H](CCC(N)=O)C(=O)N[C@H](C(=O)N[C@@H](CC(C)C)C(=O)N[C@@H](C)C(=O)N[C@@H](Cc1c[nH]cn1)C(=O)N[C@H](C(N)=O)C(C)C)[C@@H](C)CC)[C@@H](C)O)[C@@H](C)O)[C@@H](C)CC)[C@@H](C)CC)C(C)C)C(C)C [Compound 46] (H-IVLSLDVPIGLLQILLEQEKQEKEK([AEEA-AEEA-γGlu-γGlu-C18 diacid])QQATTNAQILAHV-NH2)
7.62	CCCCCCCCCCCCCCCC(=O)N[C@@H](CCC(=O)NCCCC[C@H](NC(=O)[C@H](C)NC(=O)[C@H](CCC(N)=O)NC(=O)[C@H](CCC(N)=O)NC(=O)[C@H](CCCCN)NC(=O)[C@H](CCC(=O)O)NC(=O)[C@H](CCCCN)NC(=O)[C@H](CCC(=O)O)NC(=O)[C@H](CCC(N)=O)NC(=O)[C@H](CCCCN)NC(=O)[C@H](CCC(=O)O)NC(=O)[C@H](CCC(N)=O)NC(=O)[C@H](CCC(=O)O)NC(=O)[C@H](CC(C)C)NC(=O)[C@H](CC(C)C)NC(=O)[C@@H](NC(=O)[C@H](CCC(N)=O)NC(=O)[C@H](CC(C)C)NC(=O)[C@H](CC(C)C)NC(=O)CNC(=O)[C@@H](NC(=O)[C@@H]1CCCN1C(=O)[C@@H](NC(=O)[C@H](CC(=O)O)NC(=O)[C@H](CC(C)C)NC(=O)[C@H](CO)NC(=O)[C@H](CC(C)C)NC(=O)[C@@H](NC(=O)[C@@H](N)[C@@H](C)CC)C(C)C)C(C)C)[C@@H](C)CC)[C@@H](C)CC)C(=O)N[C@H](C(=O)N[C@@H](CC(N)=O)C(=O)N[C@@H](C)C(=O)N[C@@H](CCCNC(=N)N)C(=O)N[C@H](C(=O)N[C@@H](CC(C)C)C(=O)N[C@@H](C)C(=O)N[C@@H](CCCNC(=N)N)C(=O)N[C@H](C(N)=O)C(C)C)[C@@H](C)CC)[C@@H](C)O)C(=O)O [Compound 37] (H-IVLSLDVPIGLLQILLEQEKQEKEKQQAK([γGlu-Palmitoyl])TNARILARV-NH2)
